Test results from US11168093B2, “Thienopyridine inhibitors of RIPK2” (Celgene Corporation, priority 2018, dated 2021).

Target: RIPK2 enzyme (Homo sapiens (Human), UniProt O43353)
Experiment: RIPK2 inhibition assay, TR-FRET LanthaScreen Tracer 199 screening assay
Format: binding
Conditions: 5 nM RIPK2 enzyme, Tracer 199 at 50 nM, Eu-anti-His Antibody at 2 nM, 1 hour incubation
Method in brief: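 TR-FRET binding displacement: 5 nM RIPK2, 50 nM Tracer 199, 2 nM Eu-anti-His antibody in 1× kinase reaction buffer, 1 h, read at room temperature (340 ex/665 and 615 em). No-enzyme background subtracted; percent inhibition versus uninhibited controls, IC50 from unconstrained variable-slope fit.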

RIPK2 enzyme, sequence (O43353 whole entry): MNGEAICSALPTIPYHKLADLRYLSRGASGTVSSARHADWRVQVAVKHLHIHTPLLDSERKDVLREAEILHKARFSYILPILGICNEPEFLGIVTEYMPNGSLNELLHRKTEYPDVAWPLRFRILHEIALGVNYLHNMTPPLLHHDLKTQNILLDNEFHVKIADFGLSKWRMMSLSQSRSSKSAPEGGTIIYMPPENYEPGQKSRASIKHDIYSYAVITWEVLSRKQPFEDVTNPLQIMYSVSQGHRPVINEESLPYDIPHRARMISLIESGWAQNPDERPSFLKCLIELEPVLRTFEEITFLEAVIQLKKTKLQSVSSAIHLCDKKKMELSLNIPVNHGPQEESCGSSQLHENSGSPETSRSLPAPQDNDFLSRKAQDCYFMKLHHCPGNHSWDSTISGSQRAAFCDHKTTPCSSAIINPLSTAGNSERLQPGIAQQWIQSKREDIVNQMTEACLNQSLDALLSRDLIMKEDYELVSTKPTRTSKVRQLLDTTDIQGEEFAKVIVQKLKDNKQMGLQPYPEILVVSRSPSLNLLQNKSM

C[C@@H]1[C@H](c2cc3c(Nc4ccc5scnc5c4)ccnc3s2)CCCN1C [Example 4c, N-(2-(1,2-dimethylpiperidin-3-yl)thieno[2,3-b]pyridin-4-yl)benzo[d]thiazol-5-amine] and CCN1CCCC(c2cc3c(Nc4ccc5scnc5c4)c(F)cnc3s2)C1C (centres unmarked) [Example 121, N-(2-(1-ethyl-2-methylpiperidin-3-yl)-5-fluorothieno[2,3-b]pyridin-4-yl)benzo[d]thiazol-5-amine] cannot be ordered by IC50: ≤ 10 nM for the first, ≤ 10 nM for the second.

First: CCN1CCC(c2cc3c(Nc4cc5ncsc5cc4F)ccnc3s2)C12CCOC2 (centres unmarked) [Example 83, N-(2-(1-ethyl-7-oxa-1-azaspiro[4.4]nonan-4-yl)thieno[2,3-b]pyridin-4-yl)-6-fluorobenzo[d]thiazol-5-amine]
Second: CN1CCC(c2cc3c(Nc4c(F)cc5scnc5c4F)ccnc3s2)C12CCOC2 (centres unmarked) [Example 100, 4,6-difluoro-N-(2-(1-methyl-7-oxa-1-azaspiro[4.4]nonan-4-yl)thieno[2,3-b]pyridin-4-yl)benzo[d]thiazol-5-amine]
The IC50 of the first is higher: ≥ 50 nM for the first, 10 to 20 nM for the second. The second is the more potent here.

C[C@@H]1NCCC[C@@H]1c1cc2c(Nc3ccc4scnc4c3F)ccnc2s1 [Example 57b, 4-fluoro-N-(2-((2S,3S)-2-methylpiperidin-3-yl)thieno-[2,3-b]pyridin-4-yl)benzo[d]thiazol-5-amine] and CCN1CCC[C@@H](c2cc3c(Nc4c(F)cc5scnc5c4F)ccnc3s2)[C@H]1C [Example 73b, N-[2-((2R,3R)1-ethyl-2-methyl-3-piperidyl)thieno[2,3-b]pyridin-4-yl]-4,6-difluoro-1,3-benzothiazol-5-amine] cannot be ordered by IC50: ≤ 10 nM for the first, ≤ 10 nM for the second.

c1cc(Nc2ccc3scnc3c2)c2cc(C3CCCNCC3)sc2n1 (centres unmarked) [Example 108, N-(2-(azepan-4-yl)thieno[2,3-b]pyridin-4-yl)benzo[d]thiazol-5-amine] and CC1NCCCC1c1cc2c(Nc3cc4ncsc4cc3F)c(F)cnc2s1 (single isomer, unassigned) [Example 122c, 6-fluoro-N-(5-fluoro-2-(2-methylpiperidin-3-yl)thieno[2,3-b]pyridin-4-yl) benzo[d]thiazol-5-amine] cannot be ordered by IC50: ≤ 10 nM for the first, 10 to 20 nM for the second.
